Measured values from patent publication US20100184678A1, “USE OF A PEPTIDE AS A THERAPEUTIC AGENT” (priority 2007, published 2010).
Where no end group is shown, it is not given here.

Tests used:
HCMV strain AD169 = experiment: HCMV plaque formation assay in MRC-5 cells; assay type: cell-based; details: for inhibition of HCMV plaque formation as compared to the virus control experiment: 10 micrograms per ml, MRC-5 cells, 7-10 days
Excerpt: Ganciclovir was used as positive control.

HUVEC = experiment: Endothelial tube formation assay; assay type: cell-based, human; details: 10 micrograms per ml; 20 hours
Excerpt: Positive control was vehicle only. […] Raw data were expressed as average tubule lenghs in pixels±standard deviation.

[1] = system: hepatitis B virus (HBV) ayw strain; experiment: HBV assay in HepG2-2.2.15 cells (secreted HBV DNA, TaqMan PCR); assay type: cell-based; details: 10 micrograms per ml, HepG2-2.2.15, six days
A549 cells [2] = experiment: Apoptosis induction assay (Annexin-5); assay type: cell-based, human; details: 10 micrograms per ml; 24 hours
Procedure: Human A549 cells (carcinomic human alveolar basal epithelial cells) were utilized in the experiments employing the Annexin-5 apoptosis assay. […] Test peptides—10 micrograms per ml—were exposed for 24 hours to the A549 cells before they were analyzed for signs of apoptosis.

murine spleen cells = experiment: Th1/Th2 cytokine profiling assay (Ovalbumin-restimulated spleen cells); assay type: cell-based, Balb/c mice; details: 10 micrograms per ml, 72 hours; for production of IFN-gamma (decreased by %) / production of IL-4 (decreased by %) / production of IL-5 (decreased by %): number = decrease; for production of TNF-alpha (induced by %): number = increase
[3] = system: Primary Human endothelial cells (HUVEC); experiment: Endothelial cell migration assay; assay type: cell-based; details: 10 micrograms per ml; 22 hours
Procedure: Thereafter, designated concentration of testing peptides—10 micrograms per ml—was added in duplicate wells.

A549 cells [4] = experiment: Apoptosis prevention assay (C2 ceramide, Annexin-5); assay type: cell-based, human; details: 10 micrograms per ml, 30 min pretreatment, then C2 ceramide
Procedure: Human A549 cells (carcinomic human alveolar basal epithelial cells) were utilized in the experiments employing the Annexin-5 apoptosis assay. […] A549 cells were pretreated for 30 min with test peptides—10 micrograms per ml—followed by the exposure to C2 ceramide.

HIV-1IIIB = experiment: HIV-1 antiviral assay in CEM-SS cells (MTS readout); details: HIV-1IIIB in CEM-SS cells

Compound	inhibition of HCMV plaque formation as compared to the virus control experiment (HCMV strain AD169)	inhibition of the tube formation of human endothelial cells (HUVEC)	inhibition of HBV replication as compared to the virus control infection [1] [%]	induction of apoptosis on human lung cells (A549 cells [2])	production of IL-2 (change) (murine spleen cells)	production of IFN-gamma (decreased by %) (murine spleen cells)	production of IL-4 (decreased by %) (murine spleen cells)	production of IL-5 (decreased by %) (murine spleen cells)	production of TNF-alpha (induced by %) (murine spleen cells)	inhibition of the migration of human endothelial cells [3]	induction of apoptosis on ceramide-induced apoptosis (A549 cells [4]; increase of apoptosis) [%]	antiviral activity of positive control compounds (HIV-1IIIB)	antiviral activity of positive control compound (HCMV strain AD169; HCMV in MRC-5 cells)	prevention of apoptosis on ceramide-induced apoptosis (A549 cells [4]; protection) [%]
His-Pro-Leu-Gln-Lys-Thr-Tyr-OH (HPLQKTY-OH) [Peptide 1]	0.3%	6%	25.3	did not show any significant induction	did not significantly change	did not significantly change	30.9%	did not significantly change	31.3%	4%	9.7	–	–	–
Cc1cn([C@H]2C[C@H](N=[N+]=[N-])[C@@H](CO)O2)c(=O)[nH]c1=O [AZT]	–	–	–	–	–	–	–	–	–	–	–	expected levels of antiviral activity	–	–
CC(C)(C)NC(=O)[C@@H]1CN(Cc2cccnc2)CCN1C[C@@H](O)C[C@@H](Cc1ccccc1)C(=O)N[C@H]1c2ccccc2C[C@H]1O [indinavir]	–	–	–	–	–	–	–	–	–	–	–	expected levels of antiviral activity	–	–
Nc1nc(O)c2ncn(COC(CO)CO)c2n1 [Ganciclovir, reference compound]	–	–	–	–	–	–	–	–	–	–	–	–	expected levels of antiviral activity	–
His-Ser-Asp-Gly-Ile-Phe-Thr-Asp-Ser-Tyr-Ser-Arg-Tyr-Arg-Lys-Gln-Met-Ala-Val-Lys-Lys-Tyr-Leu-Ala-Ala-Val-Leu-NH2 (HSDGIFTDSYSRYRKQMAVKKYLAAVL-NH2) [Peptide 2]	did not inhibit	did not inhibit	39.1	3.6%	did not significantly change	62.9%	did not significantly change	43.3%	did not significantly change	did not inhibit	–	–	–	13.7
